Key:
Format in all cases: cell-based
human TLR8 = biological target: T1, human TLR8 (Homo sapiens, UniProt Q9NR97); experiment: TLR8 inhibition reporter assay (HEK-Blue cells, SEAP reporter, R848 stimulation); details: HEK-Blue cells overexpressing human TLR8, SEAP reporter, R848 15.9 μM
T1 construct: host or cells: HEK-Blue cells
T1 sequence (Q9NR97 27-1041): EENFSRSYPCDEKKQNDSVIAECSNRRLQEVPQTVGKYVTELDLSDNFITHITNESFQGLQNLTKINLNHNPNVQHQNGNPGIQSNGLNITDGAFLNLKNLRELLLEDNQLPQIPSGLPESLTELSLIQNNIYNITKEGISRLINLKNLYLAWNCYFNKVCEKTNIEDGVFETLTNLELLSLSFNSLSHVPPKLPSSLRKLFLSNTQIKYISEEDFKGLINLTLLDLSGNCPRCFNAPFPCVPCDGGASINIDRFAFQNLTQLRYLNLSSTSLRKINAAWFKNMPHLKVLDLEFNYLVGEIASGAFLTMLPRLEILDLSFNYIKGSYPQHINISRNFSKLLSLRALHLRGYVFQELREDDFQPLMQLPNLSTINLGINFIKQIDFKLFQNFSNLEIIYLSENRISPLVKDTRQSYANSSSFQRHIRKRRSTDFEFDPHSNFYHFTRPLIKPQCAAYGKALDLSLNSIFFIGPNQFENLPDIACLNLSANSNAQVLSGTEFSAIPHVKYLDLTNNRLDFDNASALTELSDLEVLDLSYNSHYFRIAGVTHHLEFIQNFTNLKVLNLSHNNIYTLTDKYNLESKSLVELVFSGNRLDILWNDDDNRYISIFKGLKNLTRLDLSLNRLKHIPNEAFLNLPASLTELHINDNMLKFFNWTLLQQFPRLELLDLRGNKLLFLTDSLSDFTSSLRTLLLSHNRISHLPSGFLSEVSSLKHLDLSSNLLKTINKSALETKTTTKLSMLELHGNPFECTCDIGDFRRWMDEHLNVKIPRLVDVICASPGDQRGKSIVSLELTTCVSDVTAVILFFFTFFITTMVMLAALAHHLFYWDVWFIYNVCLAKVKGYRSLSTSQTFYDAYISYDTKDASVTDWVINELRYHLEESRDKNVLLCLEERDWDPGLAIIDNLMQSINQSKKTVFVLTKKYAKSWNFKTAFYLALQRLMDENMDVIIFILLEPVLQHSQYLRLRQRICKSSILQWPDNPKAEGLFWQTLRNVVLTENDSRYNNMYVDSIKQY
How it was run: (§1)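 Ligand levels: TLR7 gardiquimod 7.5 μM, TLR8 R848 15.9 μM, TLR9 ODN2006 5 nM, added after 30 min room-temperature compound pre-incubation at 0.05 nM-50 μM. Reporter SEAP read with HEK-Blue Detection reagent after 22 h, 37° C. Inhibition expressed as % reduction relative to agonist-plus-DMSO and known-inhibitor controls.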

human TLR7 = biological target: T2, human TLR7 (Homo sapiens, UniProt Q9NYK1); experiment: TLR7 inhibition reporter assay (HEK-Blue cells, SEAP reporter, gardiquimod stimulation); details: HEK-Blue cells overexpressing human TLR7, SEAP reporter, gardiquimod 7.5 μM
T2 construct: host or cells: HEK-Blue cells
T2 sequence (Q9NYK1 27-1049): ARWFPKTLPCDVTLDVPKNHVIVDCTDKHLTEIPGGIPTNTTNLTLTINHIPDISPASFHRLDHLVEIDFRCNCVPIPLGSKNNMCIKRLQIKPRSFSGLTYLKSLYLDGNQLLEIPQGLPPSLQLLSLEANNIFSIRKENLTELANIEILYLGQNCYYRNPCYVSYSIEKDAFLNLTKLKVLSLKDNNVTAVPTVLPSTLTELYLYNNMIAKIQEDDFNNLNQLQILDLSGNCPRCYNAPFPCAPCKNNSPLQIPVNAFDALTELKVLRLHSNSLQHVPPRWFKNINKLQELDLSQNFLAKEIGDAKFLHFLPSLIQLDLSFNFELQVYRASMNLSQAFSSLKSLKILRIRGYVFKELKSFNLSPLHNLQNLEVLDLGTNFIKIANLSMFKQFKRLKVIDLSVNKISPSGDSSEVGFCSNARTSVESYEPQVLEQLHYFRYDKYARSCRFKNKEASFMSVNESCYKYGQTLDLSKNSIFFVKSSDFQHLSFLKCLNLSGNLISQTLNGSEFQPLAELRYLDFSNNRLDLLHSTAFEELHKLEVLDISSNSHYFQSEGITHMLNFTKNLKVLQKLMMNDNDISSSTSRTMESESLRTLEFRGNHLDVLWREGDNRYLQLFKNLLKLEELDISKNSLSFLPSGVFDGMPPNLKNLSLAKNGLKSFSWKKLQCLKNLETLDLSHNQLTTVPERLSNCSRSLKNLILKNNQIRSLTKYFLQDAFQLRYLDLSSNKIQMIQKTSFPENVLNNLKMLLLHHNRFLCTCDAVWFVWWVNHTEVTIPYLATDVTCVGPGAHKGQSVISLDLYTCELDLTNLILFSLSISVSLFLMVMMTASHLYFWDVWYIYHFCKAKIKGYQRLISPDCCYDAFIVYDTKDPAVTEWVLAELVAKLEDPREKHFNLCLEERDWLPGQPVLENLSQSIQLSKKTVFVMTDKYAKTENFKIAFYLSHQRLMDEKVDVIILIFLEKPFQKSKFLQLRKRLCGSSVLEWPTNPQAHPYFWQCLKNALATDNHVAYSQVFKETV
How it was run: as §1

human TLR9 = biological target: T3, human TLR9 (Homo sapiens, UniProt Q9NR96); experiment: TLR9 inhibition reporter assay (HEK-Blue cells, SEAP reporter, ODN2006 stimulation); details: HEK-Blue cells overexpressing human TLR9, SEAP reporter, ODN2006 5 nM
T3 construct: host or cells: HEK-Blue cells
T3 sequence (Q9NR96 26-1032): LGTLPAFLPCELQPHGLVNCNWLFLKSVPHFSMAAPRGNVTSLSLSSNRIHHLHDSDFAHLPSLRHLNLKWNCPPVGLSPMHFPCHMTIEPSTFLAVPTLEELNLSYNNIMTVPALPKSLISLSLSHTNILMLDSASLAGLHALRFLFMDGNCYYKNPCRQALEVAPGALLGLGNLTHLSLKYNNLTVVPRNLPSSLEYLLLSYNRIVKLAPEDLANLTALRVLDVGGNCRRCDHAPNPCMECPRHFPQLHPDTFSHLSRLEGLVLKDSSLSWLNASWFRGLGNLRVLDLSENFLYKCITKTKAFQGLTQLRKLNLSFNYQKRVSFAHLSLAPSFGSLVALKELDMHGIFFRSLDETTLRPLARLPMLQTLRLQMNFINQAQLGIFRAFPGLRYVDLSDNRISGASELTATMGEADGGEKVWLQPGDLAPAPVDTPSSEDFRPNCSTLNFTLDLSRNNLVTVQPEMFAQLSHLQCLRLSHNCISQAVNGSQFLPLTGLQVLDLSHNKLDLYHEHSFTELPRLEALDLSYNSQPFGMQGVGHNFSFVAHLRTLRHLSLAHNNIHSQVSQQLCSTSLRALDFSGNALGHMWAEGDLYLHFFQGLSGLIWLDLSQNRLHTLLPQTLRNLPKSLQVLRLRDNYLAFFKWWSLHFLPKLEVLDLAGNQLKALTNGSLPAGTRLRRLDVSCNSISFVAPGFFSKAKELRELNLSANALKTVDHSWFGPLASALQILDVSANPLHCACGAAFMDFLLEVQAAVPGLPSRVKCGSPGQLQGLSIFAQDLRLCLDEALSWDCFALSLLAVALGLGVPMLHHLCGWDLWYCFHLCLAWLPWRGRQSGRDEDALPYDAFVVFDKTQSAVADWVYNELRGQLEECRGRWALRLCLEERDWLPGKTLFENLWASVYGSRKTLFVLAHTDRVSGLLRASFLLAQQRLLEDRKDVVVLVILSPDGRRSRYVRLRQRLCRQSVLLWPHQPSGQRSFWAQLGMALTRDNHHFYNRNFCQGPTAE
How it was run: as §1

| Structure (SMILES) | IC50 (human TLR8) [nM] | IC50 (human TLR7) [nM] | IC50 (human TLR9) [nM] |
| --- | --- | --- | --- |
| CC(C)c1c(-c2ccnc3[nH]ncc23)[nH]c2ccc(C3CCC(Oc4ccncc4)CC3)cc12 (stereo not drawn) [Example 505] | 774 | 347 | 13900 |
| Cc1cc(-c2[nH]c3ccc(C4CCCN(CC(=O)N(C)C)C4)cc3c2C(C)C)cc(C)n1 (stereo not drawn) [Example 235] | 12 | 40 | 693 |
| Cc1cc(-c2[nH]c3ccc(C4CCC(N5CCOCC5)CC4)cc3c2C(C)C)cc(C)n1 (stereo not drawn) [Example 54] | 3.3 | 2 | 618 |
| Cc1cc(-c2[nH]c3ccc(C4CCCN(C(=O)[C@@H]5CCN5)C4)cc3c2C(C)C)cc(C)n1 (stereo partly drawn) [Example 220] | 11 | 1 | 339 |
| Cc1c(-c2[nH]c3ccc(C4CC(N(C)C(=O)CN(C)C)C4)cc3c2C(C)C)cn2ncnc2c1C (stereo not drawn) [Example 589] | 2.8 | 2 | 5410 |
| Cc1cc(-c2[nH]c3ccc(C4CCCN(Cc5c[nH]c(C)n5)C4)cc3c2C(C)C)cc(C)n1 (stereo not drawn) [Example 246] | 16 | 10 | 56 |
| Cc1c(-c2[nH]c3ccc(C4CCC(NCC(=O)N(C)C)CC4)cc3c2C(C)C)cn(C)c(=O)c1C (stereo not drawn) [Example 479] | 4.1 | 5 | 8610 |
| CC(C)c1c(-c2ccnc3[nH]ncc23)[nH]c2ccc(C3CCCNCC3)cc12 (stereo not drawn) [Example 501] | 4.3 | 12 | 739 |
| Cc1c(-c2[nH]c3ccc(C4CC(N)C4)cc3c2C(C)C)cn(C)c(=O)c1C (stereo not drawn) [Example 493] | 4.6 | 16 | 4200 |
| CNC(=O)CN1CC(c2ccc3[nH]c(-c4cn5ncnc5c(C)c4C)c(C(C)C)c3c2)OCC1(C)C (stereo not drawn) [Example 388] | 41 | 37 | > 50000 |
| Cc1cc(-c2[nH]c3ccc(C4CCC(N5CCOCC5)CC4)cc3c2C(C)C)cc(C)n1 (stereo not drawn) [Example 55] | 15 | 8 | 480 |
| Cc1c(-c2[nH]c3ccc(C4CCC(N5CC6(COC6)C5)CC4)cc3c2C(C)C)cn2ncnc2c1C (stereo not drawn) [Example 113] | 0.79 | 1 | 3250 |
| Cc1c(-c2[nH]c3ccc(C4CCC(N(C)C)CC4)cc3c2C(C)C)cn(C)c(=O)c1C (stereo not drawn) [Example 476] | 2.6 | 3 | 4770 |

Further lines, results first:

| IC50 (human TLR8) [nM] | IC50 (human TLR7) [nM] | IC50 (human TLR9) [nM] | Structure (SMILES) |
| --- | --- | --- | --- |
| 0.48 | 5 | 12000 | Cc1c(-c2[nH]c3ccc(C4CC(NCCS(C)(=O)=O)C4)cc3c2C(C)C)cn(C)c(=O)c1C (stereo not drawn) [Example 494] |
| 3.2 | 2 | 3350 | Cc1c(-c2[nH]c3ccc(C4CN(Cc5c[nH]nn5)C4)cc3c2C(C)C)cn2ncnc2c1C [Example 551] |
| 5.7 | 5 | 21300 | COc1cc(-c2[nH]c3ccc(C4CC(N(C)CCS(C)(=O)=O)C4)cc3c2C(C)C)cn2ncnc12 (stereo not drawn) [Example 587] |
| 0.62 | 0.32 | 4550 | COc1cc(-c2[nH]c3ccc(C4CC(NC(=O)CN(C)C)C4)cc3c2C(C)C)cn2ncnc12 (stereo not drawn) [Example 569] |
| 0.23 | 0.34 | 1030 | Cc1c(-c2[nH]c3ccc(C4CCCNC4)cc3c2C(C)C)cn2ncnc2c1C (stereo not drawn) [Example 189] |
| 10 | 9 | 7730 | Cc1c(-c2[nH]c3ccc(C4CN(C(C)C)C4)cc3c2C(C)C)cn2ncnc2c1C [Example 555] |
| 4.2 | 8 | 4720 | Cc1c(-c2[nH]c3ccc(CC4CN(CCS(C)(=O)=O)C4)cc3c2C(C)C)cn2ncnc2c1C [Example 437] |
| 104 | 17 | 25500 | COc1cc(-c2[nH]c3ccc(C4CCC(N(C)CC(F)F)CC4)cc3c2C(C)C)cn2ncnc12 (stereo not drawn) [Example 81] |
| 0.56 | 0.43 | 959 | COc1cc(-c2[nH]c3ccc(C4CNCCO4)cc3c2C(C)C)cn2ncnc12 (stereo not drawn) [Example 285] |
| 0.47 | 0.15 | 661 | Cc1cc(-c2[nH]c3ccc(C4CCC(NC5CC5)CC4)cc3c2C(C)C)cn2ncnc12 (single isomer, unassigned) [Example 16] |
| 2.9 | 1 | 3420 | COc1cc(-c2[nH]c3ccc(C4CN(CCS(C)(=O)=O)C4)cc3c2C(C)C)cn2ncnc12 [Example 265] |
| 5.1 | 4 | 9490 | Cc1c(-c2[nH]c3ccc(C4CN(CCS(C)(=O)=O)C4)cc3c2C(C)C)cn2ncnc2c1C [Example 543] |
| 6.3 | 1 | 2240 | COc1cc(-c2[nH]c3ccc(CCC4CN(C(=O)CN(C)C)C4)cc3c2C(C)C)cn2ncnc12 [Example 439] |
| 3.4 | 2 | 491 | COc1cc(-c2[nH]c3ccc(C4CCC(N5CC[C@H](N(C)C)C5)CC4)cc3c2C(C)C)cn2ncnc12 (stereo partly drawn) [Example 33] |

— US11878975B2, “Substituted indole compounds useful as TLR inhibitors” (BRISTOL-MYERS SQUIBB COMPANY, priority 2017, dated 2024)
